Results published in patent publication US6525001B1, “Substituted pyrimidine and pyridine herbicides” (Mid-American Commercialization Corporation, priority 1997, dated 2003).

Columns and labels:
Experiment in all cases: Test B pre-/postemergence
Format in all cases: in vivo
Design in all cases: key: 0 is no effect; 10 is complete control
[1] = system: cocklebur (Xanthium strumarium)
Outline: (§1)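 Compounds in a surfactant-containing, non-phytotoxic solvent blend are applied to freshly planted seed (preemergence) and, concurrently, to seedlings of 2 to 18 cm at 1–4 leaves (postemergence). Plants stay in the greenhouse twelve to sixteen days and are then scored visually from 0 (no effect) to 10 (complete control).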

[2] = system: sugar beet (Beta vulgaris)
Outline: as §1

[3] = system: rape (Brassica napus)
Outline: as §1

[4] = system: corn (Zea mays)
Outline: as §1

[5] = system: wild oat (Avena fatua)
Outline: as §1

[6] = system: velvetleaf (Abutilon theophrasti)
Outline: as §1

[7] = system: giant foxtail (Setaria faberii)
Outline: as §1

[8] = system: purple nutsedge (Cyperus rotundus)
Outline: as §1

[9] = system: momingglory (Ipomoea hederacea)
Outline: as §1

[10] = system: pigweed (Amaranthus retroflexus)
Outline: as §1

[11] = system: soybean (Glycine max)
Outline: as §1

[12] = system: wheat (Triticum aestivum)
Outline: as §1

[13] = system: bedstraw (Galium aparine)
Outline: as §1

[14] = system: crabgrass (Digitaria sanguinalis)
Outline: as §1

Cc1cnc(-c2ccc(C(F)(F)F)cc2)nc1Cc1cccc(C(F)(F)F)c1 [Example 1, 5-methyl-2-[4-(trifluoromethyl)phenyl]-4-[[3-(trifluoromethyl)phenyl]methyl]pyrimidine]
Plant response rating, Cocklebur ([1]; Rate 62 g/ha, Postemergence): 7 | Cocklebur plant response rating ([1]; Rate 62 g/ha, Preemergence): 2 | Plant response rating, Cocklebur ([1]; Rate 125 g/ha, Postemergence): 8 | Cocklebur plant response rating ([1]; Rate 125 g/ha, Preemergence): 2 | Plant response rating, Cocklebur ([1]; Rate 250 g/ha, Postemergence): 9 | Plant response rating, Cocklebur ([1]; Rate 250 g/ha, Preemergence): 3 | Plant response rating, Cocklebur ([1]; Rate 500 g/ha, Postemergence): 10 | Plant response rating, Cocklebur ([1]; Rate 500 g/ha, Preemergence): 10 | Plant response rating, Sugarbeets ([2]; Rate 62 g/ha, Postemergence): 10 | Sugarbeets plant response rating ([2]; Rate 62 g/ha, Preemergence): 10 | Plant response rating, Sugarbeets ([2]; Rate 125 g/ha, Postemergence): 10 | Sugarbeets plant response rating ([2]; Rate 125 g/ha, Preemergence): 10 | Plant response rating, Sugarbeets ([2]; Rate 250 g/ha, Postemergence): 10 | Plant response rating, Sugarbeets ([2]; Rate 250 g/ha, Preemergence): 10 | Plant response rating, Sugarbeets ([2]; Rate 500 g/ha, Postemergence): 10 | Plant response rating, Sugarbeets ([2]; Rate 500 g/ha, Preemergence): 10 | Plant response rating, Rape ([3]; Rate 62 g/ha, Postemergence): 9 | Rape plant response rating ([3]; Rate 62 g/ha, Preemergence): 10 | Plant response rating, Rape ([3]; Rate 125 g/ha, Postemergence): 9 | Rape plant response rating ([3]; Rate 125 g/ha, Preemergence): 10 | Plant response rating, Rape ([3]; Rate 250 g/ha, Postemergence): 9 | Plant response rating, Rape ([3]; Rate 250 g/ha, Preemergence): 10 | Plant response rating, Rape ([3]; Rate 500 g/ha, Postemergence): 9 | Plant response rating, Rape ([3]; Rate 500 g/ha, Preemergence): 10 | Plant response rating, Corn ([4]; Rate 62 g/ha, Postemergence): 4 | Corn plant response rating ([4]; Rate 62 g/ha, Preemergence): 1 | Plant response rating, Corn ([4]; Rate 125 g/ha, Postemergence): 4 | Corn plant response rating ([4]; Rate 125 g/ha, Preemergence): 1 | Plant response rating, Corn ([4]; Rate 250 g/ha, Postemergence): 4 | Plant response rating, Corn ([4]; Rate 250 g/ha, Preemergence): 2 | Plant response rating, Corn ([4]; Rate 500 g/ha, Postemergence): 7 | Plant response rating, Corn ([4]; Rate 500 g/ha, Preemergence): 2 | Plant response rating, Wild oats ([5]; Rate 62 g/ha, Postemergence): 4 | Wild oats plant response rating ([5]; Rate 62 g/ha, Preemergence): 8 | Plant response rating, Wild oats ([5]; Rate 125 g/ha, Postemergence): 7 | Wild oats plant response rating ([5]; Rate 125 g/ha, Preemergence): 9 | Plant response rating, Wild oats ([5]; Rate 250 g/ha, Postemergence): 7 | Plant response rating, Wild oats ([5]; Rate 250 g/ha, Preemergence): 9 | Plant response rating, Wild oats ([5]; Rate 500 g/ha, Postemergence): 9 | Plant response rating, Wild oats ([5]; Rate 500 g/ha, Preemergence): 10 | Plant response rating, Velvetleaf ([6]; Rate 62 g/ha, Postemergence): 7 | Velvetleaf plant response rating ([6]; Rate 62 g/ha, Preemergence): 6 | Plant response rating, Velvetleaf ([6]; Rate 125 g/ha, Postemergence): 8 | Velvetleaf plant response rating ([6]; Rate 125 g/ha, Preemergence): 10 | Plant response rating, Velvetleaf ([6]; Rate 250 g/ha, Postemergence): 9 | Plant response rating, Velvetleaf ([6]; Rate 250 g/ha, Preemergence): 10 | Plant response rating, Velvetleaf ([6]; Rate 500 g/ha, Postemergence): 9 | Plant response rating, Velvetleaf ([6]; Rate 500 g/ha, Preemergence): 10 | Plant response rating, Giant foxtail ([7]; Rate 62 g/ha, Postemergence): 3 | Giant foxtail plant response rating ([7]; Rate 62 g/ha, Preemergence): 10 | Plant response rating, Giant foxtail ([7]; Rate 125 g/ha, Postemergence): 7 | Giant foxtail plant response rating ([7]; Rate 125 g/ha, Preemergence): 10 | Plant response rating, Giant foxtail ([7]; Rate 250 g/ha, Postemergence): 9 | Plant response rating, Giant foxtail ([7]; Rate 250 g/ha, Preemergence): 10 | Plant response rating, Giant foxtail ([7]; Rate 500 g/ha, Postemergence): 9 | Plant response rating, Giant foxtail ([7]; Rate 500 g/ha, Preemergence): 10 | Nutsedge plant response rating ([8]; Rate 62 g/ha, Preemergence): 0 | Nutsedge plant response rating ([8]; Rate 125 g/ha, Preemergence): 0 | Plant response rating, Nutsedge ([8]; Rate 250 g/ha, Postemergence): 1 | Plant response rating, Nutsedge ([8]; Rate 500 g/ha, Postemergence): 2 | Plant response rating, Nutsedge ([8]; Rate 500 g/ha, Preemergence): 1 | Plant response rating, Morningglory ([9]; Rate 62 g/ha, Postemergence): 4 | Morningglory plant response rating ([9]; Rate 62 g/ha, Preemergence): 10 | Plant response rating, Morningglory ([9]; Rate 125 g/ha, Postemergence): 8 | Morningglory plant response rating ([9]; Rate 125 g/ha, Preemergence): 10 | Plant response rating, Morningglory ([9]; Rate 250 g/ha, Postemergence): 10 | Plant response rating, Morningglory ([9]; Rate 250 g/ha, Preemergence): 10 | Plant response rating, Morningglory ([9]; Rate 500 g/ha, Postemergence): 10 | Plant response rating, Morningglory ([9]; Rate 500 g/ha, Preemergence): 10 | Plant response rating, Redroot pigweed ([10]; Rate 62 g/ha, Postemergence): 9 | Redroot pigweed plant response rating ([10]; Rate 62 g/ha, Preemergence): 10 | Plant response rating, Redroot pigweed ([10]; Rate 125 g/ha, Postemergence): 9 | Redroot pigweed plant response rating ([10]; Rate 125 g/ha, Preemergence): 10 | Plant response rating, Redroot pigweed ([10]; Rate 250 g/ha, Postemergence): 10 | Plant response rating, Redroot pigweed ([10]; Rate 250 g/ha, Preemergence): 10 | Plant response rating, Redroot pigweed ([10]; Rate 500 g/ha, Postemergence): 10 | Plant response rating, Redroot pigweed ([10]; Rate 500 g/ha, Preemergence): 10 | Plant response rating, Soybean ([11]; Rate 62 g/ha, Postemergence): 8 | Soybean plant response rating ([11]; Rate 62 g/ha, Preemergence): 1 | Plant response rating, Soybean ([11]; Rate 125 g/ha, Postemergence): 8 | Soybean plant response rating ([11]; Rate 125 g/ha, Preemergence): 1 | Plant response rating, Soybean ([11]; Rate 250 g/ha, Postemergence): 9 | Plant response rating, Soybean ([11]; Rate 250 g/ha, Preemergence): 3 | Plant response rating, Soybean ([11]; Rate 500 g/ha, Postemergence): 9 | Plant response rating, Soybean ([11]; Rate 500 g/ha, Preemergence): 5 | Plant response rating, Wheat ([12]; Rate 62 g/ha, Postemergence): 2 | Wheat plant response rating ([12]; Rate 62 g/ha, Preemergence): 1 | Plant response rating, Wheat ([12]; Rate 125 g/ha, Postemergence): 2 | Wheat plant response rating ([12]; Rate 125 g/ha, Preemergence): 5 | Plant response rating, Wheat ([12]; Rate 250 g/ha, Postemergence): 3 | Plant response rating, Wheat ([12]; Rate 250 g/ha, Preemergence): 8 | Plant response rating, Wheat ([12]; Rate 500 g/ha, Postemergence): 5 | Plant response rating, Wheat ([12]; Rate 500 g/ha, Preemergence): 9 | Plant response rating, Bedstraw ([13]; Rate 62 g/ha, Postemergence): 9 | Bedstraw plant response rating ([13]; Rate 62 g/ha, Preemergence): 8 | Plant response rating, Bedstraw ([13]; Rate 125 g/ha, Postemergence): 9 | Bedstraw plant response rating ([13]; Rate 125 g/ha, Preemergence): 8 | Plant response rating, Bedstraw ([13]; Rate 250 g/ha, Postemergence): 9 | Plant response rating, Bedstraw ([13]; Rate 250 g/ha, Preemergence): 8 | Plant response rating, Bedstraw ([13]; Rate 500 g/ha, Postemergence): 10 | Plant response rating, Bedstraw ([13]; Rate 500 g/ha, Preemergence): 9 | Plant response rating, Crabgrass ([14]; Rate 62 g/ha, Postemergence): 4 | Crabgrass plant response rating ([14]; Rate 62 g/ha, Preemergence): 10 | Plant response rating, Crabgrass ([14]; Rate 125 g/ha, Postemergence): 9 | Crabgrass plant response rating ([14]; Rate 125 g/ha, Preemergence): 10 | Plant response rating, Crabgrass ([14]; Rate 250 g/ha, Postemergence): 9 | Plant response rating, Crabgrass ([14]; Rate 250 g/ha, Preemergence): 10 | Plant response rating, Crabgrass ([14]; Rate 500 g/ha, Postemergence): 9 | Plant response rating, Crabgrass ([14]; Rate 500 g/ha, Preemergence): 10
